From patent publication US20040023945A1, “CYCLIC AMP-SPECIFIC PHOSPHODIESTERASE INHIBITORS” (ICOS Corporation, priority 1999, published 2004) come the findings set out here.

pEC50, pIC50: −log10 of the molar value. Read-outs that look alike come from different tables or passages of the source.

Series [1] relates to human peripheral blood lymphocytes. The experiment in a line: Lipopolysaccharide-stimulated TNFα release from human peripheral blood lymphocytes. The format is cell-based. Conditions: LPS-stimulated TNFα release from human PBL, read-out: PBL/TNFα EC50. The method, then:
The compounds of structural formula (II) also were tested for an ability to reduce TNFα secretion in human peripheral blood lymphocytes. The ability to reduce TNFα secretion is related to the EC50 values (i.e., the effective concentration of the compound capable of inhibiting 50% of the total TNFα).
To assess the ability of a compound to reduce TNFα secretion in human peripheral blood lymphocytes (PBL), the following tests were performed.
Heparinized blood (approximately 30 mL) drawn from human volunteers was mixed 1:1 with Dulbecco's modified phosphate-buffered saline. This mixture was mixed 1:1 with HISTOPAQUE® and centrifuged at 1,500 rpm at room temperature without braking in the swinging bucket of a Beckman model TJ6 centrifuge. Erythrocytes were centrifuged to the bottom of the tubes, and serum remained at the surface of the tubes. A layer containing lymphocytes sedimented between the serum and HISTOPAQUE® layers, and was removed by aspiration to a fresh tube. The cells were quantified and adjusted to 3×10^6 cells/mL and a 100 μL aliquot is placed into the wells of a 96 well plate. Test compounds and RPMI media (Gibco/BRL Life Sciences) are added to each of the wells 15 minutes prior to addition of bacterial LPS ([…]). The mixture was allowed to incubate for 20 hours at 37° C. in a humidified chamber. The cells then were separated by centrifuging at 800 rpm for 5 minutes at room temperature. An aliquot of 180 μL of supernatant was transferred to a new plate for determination of TNFα concentration. TNFα protein in the cell supernatant fluids was measured using a commercially available enzyme-linked immunosorbent assay (ELISA) (CYTOSCREEN® Immunoassay Kit from Biosource International).
The cell-based assay provided the following results for various pyrrolidine compounds of the present invention. The EC50 values (i.e., effective concentration of the compound capable of inhibiting 50% of the total TNFα) illustrate the ability of the present compounds to inhibit LPS-stimulated TNFα release from human PBL.

The test system of series [2] is serum TNFα levels in LPS-injected mice. Put plainly: Inhibition of serum TNFα levels in LPS-injected mice (Mouse/TNFα ED50). Conditions: stereoisomer comparison table; for ED50: Mus musculus, read-out: Mouse/TNFα ED50. The format is in vivo. The method, then: In order to assess the ability of a compound to reduce serum TNFα levels in mammals, the following protocol was employed. […] Accordingly, in vivo efficacy of a PDE4 reducing compound was shown by dosing with compound and measuring reduction of serum TNFα levels in LPS-injected mice. Female C3H mice, 20-25 gm body weight, were fasted overnight and dosed intraperitoneally with test compound in appropriate vehicle 60 minutes before LPS injection. Five μg of LPS was then injected intraperitoneally into the mice. Ninety minutes after LPS injection, mice were bled from the heart. Blood was allowed to clot overnight at 4° C. Samples were centrifuged for 10 minutes in a microcentrifuge and the serum removed and stored at −20° C. until analysis. Serum levels of TNFα were subsequently measured using a commercially available ELISA kit (Genzyme) following the protocol enclosed in the kit. The percent of inhibition of serum TNFα levels caused by the compound was determined relative to serum TNFα levels in control mice receiving vehicle alone. […]

The subject of another series is mouse. Put plainly: Subjective assessment of mouse immobility (CNS side effects). Conditions: for CNS Side Effects: subjective assessment of mouse immobility, 60 minutes. Format: in vivo.
The next series concerns recombinant human PDE4. Put plainly: Inhibition of recombinant human PDE4 (cAMP hydrolysis). As to conditions: read-out: PDE4 IC50.
In the next series the test system is ferret. The experiment in a line: Emetic modeling in the ferret following oral and intravenous dosing. Format: in vivo, Mustela putorius furo. The method, then:
This study was conducted to investigate the emetogenic properties of PDE4 inhibitors in vivo. The ferret previously has been established as a valuable tool for assessing emesis following exposure to test compounds. […] Therefore, lack of and/or decrease in emetic potential of test compounds in ferrets predicts a favorable nonemetic effect in humans. Emesis is a complex physiological response to noxious agents that can be intiated peripherally or centrally.
The test animals were adult, castrated, and descented male ferrets (species=Mustela putorius furo, Strain=Sable) ranging in weight from about 1 to 1.5 kg. The tests were performed in quadruplicate on animals that were naive to PDE4 inhibitors. The PDE4 inhibitors were formulated in 10% Polyoxyl-35 castor oil (CREMOPHOR® EL, available from BASF Corporation, Parsippany, N.J.) in phosphate buffered saline (PBS), and were administered via i.v. injections into an indwelling catheter surgically positioned in the right external jugular vein at a rate of 0.66 mL per kg body weight. PDE4 inhibitors for oral consumption were formulated in 30% CREMOPHOR® EL in PBS, and administered by intubating animals with a 16-gauge feeding needle into the stomach. The animals received the PDE4 inhibitors in a volume of 1.33 mL per kg body weight.
All animals were fasted for 8 to 12 hours prior to administration of PDE4 inhibitors. Following administration of a PDE4 inhibitor, emetic and behavioral responses were quantified for three hours post dosing. The total number of emetic responses and vomiting episodes were quantified during the observation interval. In addition, latency time to first emetic episode, duration of emesis episodes, and gross behavioral changes including ataxia, profuse and viscous salivation, mouth clawing, hyperventilation, backward walking, flattened body posture, hyperactivity, lip licking, and general appearance were recorded.
For comparative purposes, the emetogenic effect of Samples 66 and 69 were tested intravenously at 1.0, 2.5, 5.0, and 10 mg/kg and orally at 2.5, 10, 17, and 25 mg/kg.

Procedure for recombinant human PDE4: The compounds of structural formula (II) were tested for an ability to inhibit PDE4. […] The IC, value for compounds of structural formula (II) were determined using recombinant human PDE4.
Phosphodiesterase activity of the preparations was determined as follows. […] In this assay, PDE activity converts [32P]cAMP or [32P]cGMP to the corresponding [32P]5′-AMP or [32P]5′-GMP in proportion to the amount of PDE activity present. The [32P]5′-AMP or [32P]5′-GMP then was quantitatively converted to free [32P]phosphate and unlabeled adenosine or guanosine by the action of snake venom 5′-nucleotidase. […] The assay was performed at 30° C. in a 100 μL reaction mixture containing (final concentrations) 40 mM Tris HCl (pH 8.0), 1 μM ZnSO4, 5 mM MgCl2, and 0.1 mg/mL bovine serum albumin (BSA). […] PDE enzyme was present in quantities that yield<30% total hydrolysis of substrate (linear assay conditions). The assay was initiated by addition of substrate (1 mM [32P]cAMP or cGMP), and the mixture was incubated for 12 minutes. Seventy-five (75) μg of Crotalus atrox venom then was added, and the incubation was continued for 3 minutes (15 minutes total). The reaction was stopped by addition of 200 μL of activated charcoal (25 mg/mL suspension in 0.1 M NaH2PO4, pH 4). After centrifugation (750×g for 3 minutes) to sediment the charcoal, a sample of the supernatant was taken for radioactivity determination in a scintillation counter and the PDE activity was calculated.

Regarding `COC(=O)N1C[C@@H](c2ccc(OC)c(OC3Cc4ccccc4C3)c2)[C@](C)(C(C)O)C1` (stereo partly drawn) [Sample No. 61], the pEC50 in series [1] was 7.24. Further, the “Mouse/TNFα ED50” value in series [2] came to 0.2 mg/kg. In the series with mouse (i.p. 1, 10 and 100 mg/kg), the “CNS Side Effects” value is reported as “Little to no effect (at 50 mg/kg)”. The negative-log IC50 (pIC50) with recombinant human PDE4 (human recombinant PDE4) and in the series on recombinant human PDE4 (stereoisomer comparison table) was 7.74 throughout.
With `COC(=O)N1C[C@@H](c2ccc(OC)c(OC3Cc4ccccc4C3)c2)[C@](C)(C(C)O)C1` (stereo partly drawn) [Sample No. 62], in series [1], the pEC50 is 7.99. Moreover, the “Mouse/TNFα ED50” value in series [2] is given as 0.08 mg/kg. Besides, the “CNS Side Effects” value in the series with mouse (i.p. 1, 10 and 100 mg/kg) is listed as “Little to no effect (at 50 mg/kg)”. Besides, the negative logarithm of the IC50 (pIC50) with recombinant human PDE4 (human recombinant PDE4) and with recombinant human PDE4 (stereoisomer comparison table) was 8.17 throughout.
`COC(=O)N1CC(c2ccc(OC)c(OC3CCCC3)c2)[C@](C)([C@H](C)O)C1` (stereo partly drawn) [(D)]: in the series on mouse (i.p. 1, 10 and 100 mg/kg), the “CNS Side Effects” value is reported as “No effect”. Moreover, the negative logarithm of the IC50 (pIC50) – broadly, the negative decadic logarithm of the IC50, by convention in mol/L – in the series on recombinant human PDE4 (stereoisomer comparison table) was 6.29.
In the case of `COC(=O)N1C[C@H](c2ccc(OC)c(OC3CCCC3)c2)[C@@](C)([C@H](C)O)C1` [(A)], the pEC50 in series [1] (Homo sapiens, Lymphocyte) is 7.24. For the same compound, in series [2], the ED50 came out at 7 mg/kg. In addition, the “mouse mobility assessment (footnote statement)” value in the series on mouse (i.p. 1, 10 and 100 mg/kg, 60 minutes time frame) is listed as “mice were affected at all doses”. Also, the “outcome at the highest dose” value in the series with mouse (mouse, i.p., highest dose (100 mg/kg)) is “mice became moribund and died within 10 minutes of treatment”. In addition, the “CNS Side Effects” value in the series on mouse (i.p. 1, 10 and 100 mg/kg) is listed as “Severe”. The “Number of Emetic Events: Retches” value with ferret (intravenous 1.0 mg/kg) came to 0; with ferret (intravenous 2.5 mg/kg) it was 3; in the series with ferret (intravenous 5.0 mg/kg) it was 300; in the series with ferret (oral 2.5 mg/kg) it was 0; in the series with ferret (oral 10.0 mg/kg), 27; in the series on ferret (oral 17.0 mg/kg), 51. Moreover, the “Number of Emetic Events: Retches” value in the series on ferret (oral 25.0 mg/kg) came out at 88. The “Number of Emetic Events: Total” value in the series on ferret (intravenous 1.0 mg/kg) is given as 0; in the series on ferret (intravenous 2.5 mg/kg), 3; in the series on ferret (intravenous 5.0 mg/kg) it was 300; in the series with ferret (oral 2.5 mg/kg) it was 0; in the series on ferret (oral 10.0 mg/kg), 32; in the series with ferret (oral 17.0 mg/kg) it was 58. In the series on ferret (oral 25.0 mg/kg), the “Number of Emetic Events: Total” value is given as 114. Also, the “Number of Emetic Events: Vomits” value was found to be 0 with ferret (intravenous 1.0 mg/kg); 0 with ferret (intravenous 2.5 mg/kg); 0 with ferret (intravenous 5.0 mg/kg); 0 in the series on ferret (oral 2.5 mg/kg); 5 with ferret (oral 10.0 mg/kg); 7 in the series with ferret (oral 17.0 mg/kg). The “Number of Emetic Events: Vomits” value with ferret (oral 25.0 mg/kg) is 26. For the same compound, the Responders was 0/4 in the series on ferret (intravenous 1.0 mg/kg); 1/4 with ferret (intravenous 2.5 mg/kg); 2/2 with ferret (intravenous 5.0 mg/kg); 0/4 in the series on ferret (oral 2.5 mg/kg); 3/4 in the series on ferret (oral 10.0 mg/kg); 3/4 with ferret (oral 17.0 mg/kg). Besides, the Responders with ferret (oral 25.0 mg/kg) was 4/4. For the same compound, the “outcome after intravenous dosing” value with ferret (intravenous 5 mg/kg body weight) is reported as “one of the tested animals died almost immediately after dosing”. Further, in the series on ferret (oral or intravenous), the “emetic response, comparison of compounds” value is “much stronger emetic response than compound (C)”. Besides, the negative logarithm of the IC50 (pIC50) in the series with recombinant human PDE4 (human recombinant PDE4) and in the series on recombinant human PDE4 (stereoisomer comparison table) was 7.88 each time.
In the case of `COc1ccc([C@@H]2CN(C(=O)C(N)=O)C[C@@]2(C)[C@@H](C)O)cc1OCC1CC1` [Example 78, 2-[(3S,4S)-4-(3-Cyclopropylmethoxy-4-methoxyphenyl)-3-((R)-1-hydroxyethyl)-3-methylpyrrolidin-1-yl]-2-oxo-acetamide], the pEC50 in series [1] (Homo sapiens, Lymphocyte) was 5.89.
As to `COc1ccc([C@@H]2CN(C(=O)C(N)=O)C[C@@]2(C)[C@@H](C)O)cc1OCC#Cc1ccc(C(F)(F)F)cc1` [Example 76, 2-((3S,4S)-3-((R)-1-Hydroxyethyl)-4-{4-methoxy-3-(3-(4-trifluoromethyl-phenyl)prop-2-ynyloxy]-phenyl}-3-methylpyrrolidin-1-yl)-2-oxo-acetamide], the pEC50 in series [1] (Homo sapiens, Lymphocyte) was 6.76.
Still for that read-out and setting: the figure for `COc1ccc([C@@H]2CN(C(=O)C(=O)N3CCCCC3)C[C@@]2(C)[C@@H](C)O)cc1OC1CCCC1` [Example 81, 1-[3-((1R)-1-Hydroxyethyl)(3S,4S)-4-(3-cyclopentyloxy-4-methoxyphenyl)-3-methylpyrrolidinyl]-2-piperidylethane-1,2-dione] is 6.20.
Same read-out and setting: the figure for `CNC(=O)C(=O)N1C[C@@H](c2ccc(OC)c(OC3CCCC3)c2)[C@](C)([C@@H](C)O)C1` [Example 80, 2-[3-((1R)-1-Hydroxyethyl)(3S,4S)-4-(3-cyclopentyloxy-4-methoxyphenyl)-3-methylpyrrolidinyl]-N-methyl-2-oxoacetamide] is 6.56; for `COc1ccc([C@@H]2CN(C(=O)C(N)=O)C[C@@]2(C)[C@@H](C)O)cc1OCCCOc1ccc(F)cc1` [Example 77, 2-[(3S,4S)-4-{3-[3-(4-Fluorophenoxy)propoxy]-4-methoxyphenyl}-3-((R)-1-hydroxyethyl)-3-methylpyrrolidin-1-yl]-2-oxo-acetamide] it is 6.24.
Take `COC(=O)N1CC(c2ccc(OC)c(OC3CCCC3)c2)[C@@](C)([C@@H](C)O)C1` (stereo partly drawn) [(B)]: in series [2], the ED50 came out at 12 mg/kg. In the series on mouse (i.p. 1, 10 and 100 mg/kg), the “CNS Side Effects” value is “No effect”. Also, the pIC50 in the series with recombinant human PDE4 (stereoisomer comparison table) is 7.21.
Take `CCCC[C@H](N)C(=O)N1C[C@@H](c2ccc(OC)c(OC3CCCC3)c2)[C@](C)([C@@H](C)O)C1` [Example 93, 1-[3-((1R)-1-Hydroxyethyl)(3S,4S)-4-(3-cyclopentyloxy-4-methoxyphenyl)-3-methylpyrrolidinyl](2S)-2-aminohexan-1-one]: the pEC50 in series [1] (Homo sapiens, Lymphocyte) is 8.11.
The same measure, in the same setting: in the case of `COc1ccc([C@@H]2CN(C(=O)C(C)(C)OC(C)=O)C[C@@]2(C)[C@@H](C)O)cc1OC1CCCC1` [Example 70, 2-(3-((1R)-1-Hydroxyethyl)(3S,4S)-4-(3-cyclopentyloxy-4-methoxyphenyl) -3-methylpyrrolidinyl]-1,1-dimethyl-2-oxoethyl acetate] it was 6.26.
The same measure, in the same setting: the figure for `CCCC[C@@H](NC(=O)OCc1ccccc1)C(=O)N1C[C@@H](c2ccc(OC)c(OC3CCCC3)c2)[C@](C)([C@@H](C)O)C1` [Example 84, N-{(1R)-2-[3-((1R)-1-Hydroxyethyl)(3S,4S)-4-(3-cyclopentyloxy-4-methoxyphenyl)-3-methylpyrrolidinyl]-1-butyl-2-oxoethyl}(phenylmethoxy)carboxamide] is 7.40.
